In brackets after ≈: the same amount, converted by molar mass. Like-named read-outs stand apart in the source and are kept apart here. Values belong to the compound of their own block, whether it stands above or below them.
Columns and labels:
[1] = system: Pseudomonas aeruginosa; type: cell-based
[2] = system: human red blood cells (hRBCs); assay: Hemolytic activity; type: cell-based
[3] = system: Cultured human cells; assay: MTT cytotoxicity assay; type: cell-based; conditions: cultured human cells, compared to controls
[4] = system: Enterobacter cloacae
[5] = system: Escherichia coli
[6] = system: Klebsiella pneumoniae
[7] = system: Serratia marcescens
[8] = system: Klebsiella pneumoniae; assay: microbe, parasite or virus in culture

Compound: CC[C@H](C)[C@H](NC(=O)[C@H](CCCCN)NC(=O)[C@H](CCC(=O)O)NC(=O)[C@H](CCCCN)NC(=O)[C@H](CO)NC(=O)[C@H](CCCCN)NC(=O)[C@H](CCCNC(=N)N)NC(=O)[C@H](Cc1ccccc1)NC(=O)[C@H](Cc1ccccc1)NC(=O)[C@H](CC(=O)O)NC(=O)CNC(=O)[C@H](CC(C)C)NC(=O)[C@@H](N)CC(C)C)C(=O)NCC(=O)N[C@@H](CCCCN)C(=O)N[C@@H](CCC(=O)O)C(=O)N[C@@H](Cc1ccccc1)C(=O)N[C@@H](CCCCN)C(=O)N[C@@H](CCCNC(=N)N)C(=O)N[C@H](C(=O)N[C@H](C(=O)N[C@@H](CCC(N)=O)C(=O)N[C@@H](CCCNC(=N)N)C(=O)N[C@H](C(=O)N[C@@H](CCCCN)C(=O)N[C@@H](CC(=O)O)C(=O)N[C@@H](Cc1ccccc1)C(=O)N[C@@H](CC(C)C)C(=O)N[C@@H](CCCNC(=N)N)C(=O)N[C@@H](CC(N)=O)C(=O)N[C@@H](CC(C)C)C(=O)N[C@H](C(=O)N1CCC[C@H]1C(=O)N[C@@H](CCCNC(=N)N)C(=O)N[C@H](C(=O)N[C@@H](CCC(=O)O)C(=O)N[C@@H](CO)C(=O)O)[C@@H](C)O)C(C)C)[C@@H](C)CC)C(C)C)[C@@H](C)CC [LL-37, reference compound]
Minimal inhibitory concentration ([1]; P. aeruginosa ATCC 27853): >32 µg/mL | Minimal inhibitory concentration ([1]; Table 10, Pseudomonas aeruginosa ATCC 27853): >32 µM | Minimal inhibitory concentration ([1]; Table 10, Pseudomonas aeruginosa OC4083): >32 µM | Minimal inhibitory concentration ([1]; Table 10, Pseudomonas aeruginosa PAO1): 32 µM | Minimal inhibitory concentration ([1]; Table 10, Pseudomonas aeruginosa PAO1 oprD): 32 µM | Hemoglobin release from hRBCs ([2]; 2 micromolar, 45-minute incubation (FIG. 17)): a low abundance of hemoglobin outside of the cells was detected | hRBC lysis ([2]; 2 to 8 μM (FIG. 15)): lysed hRBC when present at 4 or 8 μM | hRBC lysis with increasing concentration ([2]; LL-37 beyond 10 micromolar, B22a up to 60 micromolar (FIG. 18)): significantly higher hRBC lysis | Cytotoxicity, MTT assay [3]: no increased cytotoxicity compared to the controls | Minimal inhibitory concentration ([4]; E. cloacae 4092): >32 µg/mL | Minimal inhibitory concentration ([4]; Table 10, Enterobacter cloacae OC4080): 32 µM | Minimal inhibitory concentration ([4]; Table 10, Enterobacter cloacae OC4092): >32 µM | Minimal inhibitory concentration ([5]; E. coli 4075): >32 µg/mL | Minimal inhibitory concentration ([5]; E. coli J53 AzideR): >32 µg/mL | Minimal inhibitory concentration ([5]; E. coli MC4100): >32 µg/mL | Minimal inhibitory concentration ([5]; Table 10, Escherichia coli ATCC 25922): 32 µM | Minimal inhibitory concentration ([5]; Table 10, Escherichia coli ATCC 35218): 32 µM | Minimal inhibitory concentration ([5]; Table 10, Escherichia coli IU342): 32 µM | Minimal inhibitory concentration ([5]; Table 10, Escherichia coli J53 AzideR): >32 µM | Minimal inhibitory concentration ([5]; Table 10, Escherichia coli MC4100a): >32 µM | Minimal inhibitory concentration ([5]; Table 10, Escherichia coli OC4075): >32 µM | Minimal inhibitory concentration ([5]; Table 10, Escherichia coli UT189): >32 µM | Minimal inhibitory concentration ([6]; K. pneumoniae 4110): >32 µg/mL | Minimal inhibitory concentration ([6]; K. pneumoniae ATCC 700603): >32 µg/mL | Minimal inhibitory concentration ([6]; K. pneumoniae C2): >32 µg/mL | Minimal inhibitory concentration ([6]; K. pneumoniae OC8893): >32 µg/mL | Minimal inhibitory concentration ([6]; Table 10, Klebsiella pneumonia ATCC 700603): >32 µM | Minimal inhibitory concentration ([6]; Table 10, Klebsiella pneumonia C2): >32 µM | Minimal inhibitory concentration ([6]; Table 10, Klebsiella pneumonia OC4110): >32 µM | Minimal inhibitory concentration ([6]; Table 10, Klebsiella pneumonia OC8893): >32 µM | Minimal inhibitory concentration ([7]; S. marcescens 4101): >32 µg/mL | Minimal inhibitory concentration ([7]; S. marcescens 4104): >32 µg/mL | Minimal inhibitory concentration ([7]; S. marcescens 7553): >32 µg/mL | Minimal inhibitory concentration ([7]; Table 10, Serratia marcescens 4075A): >32 µM | Minimal inhibitory concentration ([7]; Table 10, Serratia marcescens 4101): >32 µM | Minimal inhibitory concentration ([7]; Table 10, Serratia marcescens 4104): >32 µM

MIC ([8]; Table 8, clinical isolate 88 (NDM1+)): > 16 µg/mL | MIC ([8]; Table 8, clinical isolate 92): > 16 µg/mL | MIC ([8]; Table 8, clinical isolate 109): > 16 µg/mL | MIC ([8]; Table 8, clinical isolate 113): > 16 µg/mL | MIC ([8]; Table 8, clinical isolate 116): > 16 µg/mL | MIC ([8]; Table 8, clinical isolate 118): > 16 µg/mL | MIC ([8]; Table 8, clinical isolate 136): > 16 µg/mL | MIC ([8]; Table 8, clinical isolate 170): > 32 µg/mL | MIC ([8]; Table 8, clinical isolate 256): 4 µg/mL (≈ 10.4 µM) | MIC ([8]; Table 8, clinical isolate 262 (NDM1+)): > 6 µg/mL | MIC ([8]; Table 8, clinical isolate 265): > 64 µg/mL | MIC ([8]; Table 8, clinical isolate 280): > 64 µg/mL | MIC ([8]; Table 8, clinical isolate 281): > 64 µg/mL | MIC ([8]; Table 8, clinical isolate 284): > 64 µg/mL | MIC ([8]; Table 8, clinical isolate 286): > 64 µg/mL | MIC ([8]; Table 8, clinical isolate 328): > 16 µg/mL | MIC ([8]; Table 8, clinical isolate 330): > 16 µg/mL | MIC ([8]; Table 8, clinical isolate 361): > 16 µg/mL | MIC ([8]; Table 8, clinical isolate 365): > 16 µg/mL | MIC ([8]; Table 8, clinical isolate 399): > 16 µg/mL | MIC ([8]; Table 11, clinical isolate 88 (NDM1+)): > 16 µg/mL | MIC ([8]; Table 11, clinical isolate 92): > 16 µg/mL | MIC ([8]; Table 11, clinical isolate 116): > 16 µg/mL | MIC ([8]; Table 11, clinical isolate 118): > 16 µg/mL | MIC ([8]; Table 11, clinical isolate 136): > 16 µg/mL | MIC ([8]; Table 11, clinical isolate 170): > 32 µg/mL | MIC ([8]; Table 11, clinical isolate 256): 4 µg/mL (≈ 10.4 µM) | MIC ([8]; Table 11, clinical isolate 262 (NDM1+)): ≥ 64 µg/mL | MIC ([8]; Table 11, clinical isolate 265): ≥ 64 µg/mL | MIC ([8]; Table 11, clinical isolate 280): ≥ 64 µg/mL | MIC ([8]; Table 11, clinical isolate 281): > 64 µg/mL | MIC ([8]; Table 11, clinical isolate 284): ≥ 64 µg/mL | MIC ([8]; Table 11, clinical isolate 286): ≥ 64 µg/mL | MIC ([8]; Table 11, clinical isolate 328): ≥ 16 µg/mL | MIC ([8]; Table 11, clinical isolate 330): ≥ 16 µg/mL | MIC ([8]; Table 11, clinical isolate 361): ≥ 16 µg/mL | MIC ([8]; Table 11, clinical isolate 365): ≥ 16 µg/mL | MIC ([8]; Table 11, clinical isolate 399): ≥ 16 µg/mL | MIC ([8]; Table 11, clinical isolate 110113): > 16 µg/mL
Compound: C[C@@H](O)[C@H]1C(=O)N2C(C(=O)O)=C(S[C@@H]3CN[C@H](C(=O)N(C)C)C3)[C@H](C)[C@H]12 [Meropenem]

Reference: US10624947B2, “Bactericidal peptides and uses thereof” (INDIANA UNIVERSITY RESEARCH AND TECHNOLOGY CORPORATION, priority 2016, dated 2020)
